Where only a bound is given, the exact number is not on record here.

This is an account of results in US11059792B2, “Imidazolyl tricyclic enones as antioxidant inflammation modulators” (REATA PHARMACEUTICALS, INC., priority 2015, dated 2021).

This test deals with RAW 264.7 cells. Nature of the test: Nitric oxide suppression assay (IFNγ-induced NO production, Griess detection). Type of test: cell-based. Conditions: RAW264.7, RAW 264.7 mouse macrophages, 2 h compound pre-treatment, 20 ng/mL interferon gamma, ~18 h. As for the experimental part: RAW 264.7, a mouse macrophage cell line, was obtained from American Type Culture Collection (Manassas Va.) and maintained in the log phase of growth in Dulbecco's Modified Eagle's Medium (DMEM), 10% heat inactivated fetal calf serum and 100 units/mL antibiotic-antimycotic (AA). Cells were cultured and maintained in a humidified incubator at 37° C. under 5% CO2 and 95% air. Cells were sub-cultured every 3 days by scraping and were not used beyond passage 20. All cell culture supplies were obtained from Life Technologies (Grand Island, N.Y.).
RAW 264.7 cells were plated 1 day in advance of experiment at a concentration of 80,000 cells/well onto CellBIND® 96 well plates (Corning, N.Y.) in a total volume of 100 μL. The next day, pre-treat cells with compounds (from 3 μM to 0.3 nM serially diluted in a 10 point curve) from a 10× stock by adding 10 μL per well in complete DMEM media containing 10% fetal calf serum. The plates were centrifuged for 3 minutes at 400×g at room temperature followed by 2 hour incubation at 37° C. The cells were then incubated overnight at 37° C. with 10 μL of the insult, interferon gamma (R&D Systems, Minneapolis, Minn.), from a 10× stock for a final concentration of 20 ng/mL. The plates were centrifuged for 3 minutes at 400×g at room temperature followed by ˜18 hour incubation at 37° C. The following day, transfer 50 μL cell culture supernatant from each well into a clear bottom 96 well plate and follow the instructions from Promega's Griess Detection Kit #G2930 (Madison, Wis.) which involves the addition of 50 μL of the provided sulfanilamide solution for a 5-10 minute incubation at room temperature. Next add 50 μL of the provided N-1-napthylethylenediamine dihydrochloride (NED) solution for a 5-10 minute incubation at room temperature and protected from light. If any air bubbles were introduced into the well, the plates need to be centrifuged for 5 minutes at 400×g at room temperature to avoid interference with absorbance readings. The plates were read for absorbance within 30 minutes with a filter between 520 nm and 550 nm.
For the ability of compounds to suppress the increase in nitric oxide release, the percent maximal intensity of nitric oxide detected in each well was normalized to that induced by the peak value for 20 ng/mL of interferon gamma alone and plotted against the compound concentration to calculate IC50 values and to control for plate-to-plate variability. Concentration-response data were analyzed using GraphPad Prism (San Diego, Calif.); the IC50 values were derived from a single curve fit to the mean data of n=2-3, in duplicates.
All compounds were dissolved in dimethyl sulfoxide at 10 mM stock solutions and tested at a concentration that the dimethyl sulfoxide levels never exceeded 1%.
On the technique in general: Griess reagent forms a coloured azo dye with nitrite.

One may read the IC50 as the midpoint of a concentration-inhibition curve. Consider `C[C@@H]1C(=O)C(C#N)=C[C@]2(C)c3nc(-c4ccccc4)[nH]c3CC[C@@H]12` [Compound T1], for which the half-maximal inhibitory concentration (IC50) was 151 nM.

In the case of `C[C@@H]1C(=O)C(C#N)=C[C@]2(C)c3nc(-c4ccccc4)n(-c4ccccc4)c3CC[C@@H]12` [Compound T2], the IC50 is 471 nM.

Turning to `Cc1nc2c(n1-c1ccccc1)CC[C@H]1[C@H](C)C(=O)C(C#N)=C[C@]21C` [Compound T3], the IC50 was found to be 40.8 nM.

Turning to `CC(=O)OCCCc1cccc(-n2c(-c3ccccc3)nc3c2CC[C@H]2[C@H](C)C(=O)C(C#N)=C[C@]32C)c1` [Compound T4], the IC50 amounted to 662 nM.

For `Cc1nc2c(n1-c1cccc(CCCO)c1)CC[C@H]1[C@H](C)C(=O)C(C#N)=C[C@]21C` [Compound T6], the IC50 was determined as 19.4 nM.

For the molecule `Cc1nc2c(n1-c1cccc(-c3ccccc3)c1)CC[C@H]1[C@H](C)C(=O)C(C#N)=C[C@]21C` [Compound T7], the IC50 turned out to be 91.8 nM.

Take `C[C@@H]1C(=O)C(C#N)=C[C@]2(C)c3nc(-c4ccccc4)n(-c4nnn(C)n4)c3CC[C@@H]12` [Compound T8]: the IC50 amounted to 28.8 nM.

In the case of `C[C@@H]1C(=O)C(C#N)=C[C@]2(C)c3nc(-c4cnn(C)c4)n(-c4ccccc4)c3CC[C@@H]12` [Compound T9], the IC50 was 22.7 nM.

In the case of `Cc1ccccc1-n1c(C)nc2c1CC[C@H]1[C@H](C)C(=O)C(C#N)=C[C@]21C` [Compound T10], the IC50 worked out at 62.8 nM.

Consider `C[C@@H]1C(=O)C(C#N)=C[C@]2(C)c3nc(CCOCc4ccccc4)n(-c4ccccc4)c3CC[C@@H]12` [Compound T11], for which the IC50 is 93.2 nM.

For `C[C@@H]1C(=O)C(C#N)=C[C@]2(C)c3nc(CCO)n(-c4ccccc4)c3CC[C@@H]12` [Compound T12], the IC50 was 11.3 nM.

`Cc1nc2c(n1-c1cnn(C)c1)CC[C@H]1[C@H](C)C(=O)C(C#N)=C[C@]21C` [Compound T13]: the IC50 was determined as 233 nM.

As for `COC(=O)CCc1cccc(-n2c(C)nc3c2CC[C@H]2[C@H](C)C(=O)C(C#N)=C[C@]32C)c1` [Compound T14], the IC50 turned out to be 222 nM.

On to `Cc1nc2c(n1-c1cccc(CCC(=O)O)c1)CC[C@H]1[C@H](C)C(=O)C(C#N)=C[C@]21C` [Compound T15], for which the IC50 was more than 3000 nM.

For the molecule `C[C@@H]1C(=O)C(C#N)=C[C@]2(C)c3nc(-c4cnn(C)c4)n(-c4nnn(C)n4)c3CC[C@@H]12` [Compound T16], the concentration for half-maximal inhibition (IC50) was 132 nM.

As to `C[C@@H]1C(=O)C(C#N)=C[C@]2(C)c3nc(-c4ccccc4)n(-c4cnn(C)c4)c3CC[C@@H]12` [Compound T17], the IC50 was determined as 120 nM.

As for `CNC(=O)CCc1cccc(-n2c(C)nc3c2CC[C@H]2[C@H](C)C(=O)C(C#N)=C[C@]32C)c1` [Compound T18], the IC50 came out at 693 nM.

For `Cc1nc2c(n1-c1cccc(CCC(=O)N(C)C)c1)CC[C@H]1[C@H](C)C(=O)C(C#N)=C[C@]21C` [Compound T19], the IC50 stood at 82.7 nM.

Regarding `Cc1nc2c(n1-c1cccc(CCC(N)=O)c1)CC[C@H]1[C@H](C)C(=O)C(C#N)=C[C@]21C` [Compound T20], the half-maximal inhibitory concentration (IC50) was 1000 nM.

For the molecule `COCCCn1c(C)nc2c1CC[C@H]1[C@H](C)C(=O)C(C#N)=C[C@]21C` [Compound T21], the IC50 amounted to 407 nM.

Consider `Cc1nc2c(n1-c1cccc(-c3cncnc3)c1)CC[C@H]1[C@H](C)C(=O)C(C#N)=C[C@]21C` [Compound T22], for which the IC50 stood at 47.8 nM.

For the molecule `C[C@@H]1C(=O)C(C#N)=C[C@]2(C)c3nc(Br)n(-c4ccccc4)c3CC[C@@H]12` [Compound T23], the IC50 was 31.1 nM.

Turning to `C[C@@H]1C(=O)C(C#N)=C[C@]2(C)c3nc(-c4ccncc4)n(-c4ccccc4)c3CC[C@@H]12` [Compound T24], the IC50 is 48.8 nM.

Consider `Cc1ccccc1-c1nc2c(n1-c1nnn(C)n1)CC[C@H]1[C@H](C)C(=O)C(C#N)=C[C@]21C` [Compound T25], for which the IC50 stood at 15.4 nM.

For `C[C@@H]1C(=O)C(C#N)=C[C@]2(C)c3nc(C#N)n(-c4ccccc4)c3CC[C@@H]12` [Compound T26], the half-inhibitory concentration (IC50) amounted to 27.7 nM.

For `C[C@@H]1C(=O)C(C#N)=C[C@]2(C)c3nc(C(N)=O)n(-c4ccccc4)c3CC[C@@H]12` [Compound T27], the IC50 was 53.1 nM.

As to `Cc1nc2c(n1-c1ccccc1)CC[C@H]1[C@H](C)C(=O)C(C(N)=O)=C[C@]21C` [Compound T28], the IC50 is 138 nM.

Take `Cc1nc2c(n1-c1ccc(-c3ccccc3)cc1)CC[C@H]1[C@H](C)C(=O)C(C#N)=C[C@]21C` [TS]: the IC50 was determined as 136 nM.
